{"source": "PubChem BioAssay AID1963841", "about": "(Molecular Pharmacology Branch, DTP, NCI, 2024)", "test_system": "439559-082-T-J2-PDC spheroid viability", "assay": "Anticancer human tumor 439559-082-T-J2-PDC patient-derived colon adenocarcinoma cell line growth inhibition [POLQ]", "conditions": "spheroids with HUVEC and MSC; for IC50: curve of first compound; for viability, T/C: stronger effect = lower value", "method_in_brief": "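Complex spheroid viability model combining PDC tumour cells with endothelial (HUVEC) and MSC stromal cells. Novobiocin, ART-558 or RP6685 were tested singly and in combination with standard and investigational anticancer drugs. Each was titrated in half-log steps from near clinical Cmax, or from 10 microM where Cmax was unknown.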", "key": {"[1]": {"conditions": "second compound 0.0316 µM, first compound 0.0316 µM"}, "[2]": {"conditions": "second compound 0.0316 µM, first compound 0.1 µM"}, "[3]": {"conditions": "second compound 0.0316 µM, first compound 0.316 µM"}, "[4]": {"conditions": "second compound 0.0316 µM, first compound 1 µM"}, "[5]": {"conditions": "second compound 0.0316 µM, first compound 3.16 µM"}, "[6]": {"conditions": "second compound 0.0316 µM, first compound 10 µM"}, "[7]": {"conditions": "second compound 0.1 µM, first compound 0.0316 µM"}, "[8]": {"conditions": "second compound 0.1 µM, first compound 0.1 µM"}, "[9]": {"conditions": "second compound 0.1 µM, first compound 0.316 µM"}, "[10]": {"conditions": "second compound 0.1 µM, first compound 1 µM"}, "[11]": {"conditions": "second compound 0.1 µM, first compound 3.16 µM"}, "[12]": {"conditions": "second compound 0.1 µM, first compound 10 µM"}, "[13]": {"conditions": "second compound 0.316 µM, first compound 0.0316 µM"}, "[14]": {"conditions": "second compound 0.316 µM, first compound 0.1 µM"}, "[15]": {"conditions": "second compound 0.316 µM, first compound 0.316 µM"}, "[16]": {"conditions": "second compound 0.316 µM, first compound 1 µM"}, "[17]": {"conditions": "second compound 0.316 µM, first compound 3.16 µM"}, "[18]": {"conditions": "second compound 0.316 µM, first compound 10 µM"}, "[19]": {"conditions": "second compound 1 µM, first compound 0.0316 µM"}, "[20]": {"conditions": "second compound 1 µM, first compound 0.1 µM"}, "[21]": {"conditions": "second compound 1 µM, first compound 0.316 µM"}, "[22]": {"conditions": "second compound 1 µM, first compound 1 µM"}, "[23]": {"conditions": "second compound 1 µM, first compound 3.16 µM"}, "[24]": {"conditions": "second compound 1 µM, first compound 10 µM"}, "[25]": {"conditions": "second compound 3.16 µM, first compound 0.0316 µM"}, "[26]": {"conditions": "second compound 3.16 µM, first compound 0.1 µM"}, "[27]": {"conditions": "second compound 3.16 µM, first compound 0.316 µM"}, "[28]": {"conditions": "second compound 3.16 µM, first compound 1 µM"}, "[29]": {"conditions": "second compound 3.16 µM, first compound 3.16 µM"}, "[30]": {"conditions": "second compound 3.16 µM, first compound 10 µM"}, "[31]": {"conditions": "second compound 10 µM, first compound 0.0316 µM"}, "[32]": {"conditions": "second compound 10 µM, first compound 0.1 µM"}, "[33]": {"conditions": "second compound 10 µM, first compound 0.316 µM"}, "[34]": {"conditions": "second compound 10 µM, first compound 1 µM"}, "[35]": {"conditions": "second compound 10 µM, first compound 3.16 µM"}, "[36]": {"conditions": "second compound 10 µM, first compound 10 µM"}}}
{"compound": "CC1COCCN1c1cc(C2(S(C)(=N)=O)CC2)nc(-c2ccnc3[nH]ccc23)n1", "note": "(centres undefined) + COC1C(OC(N)=O)C(O)C(Oc2ccc3c(O)c(NC(=O)c4ccc(O)c(CC=C(C)C)c4)c(=O)oc3c2C)OC1(C)C;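 also: spheroids exposed to compounds for seven days before readout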;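 as to viability, T/C: 100% = DMSO vehicle control viability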", "values": [{"measurement": "IC50", "setting": "second compound 0.0316 µM", "value": "> 10", "unit": "µM"}, {"measurement": "IC50", "setting": "second compound 0.1 µM", "value": "> 10", "unit": "µM"}, {"measurement": "IC50", "setting": "second compound 0.316 µM", "value": "> 10", "unit": "µM"}, {"measurement": "IC50", "setting": "second compound 1 µM", "value": "> 10", "unit": "µM"}, {"measurement": "IC50", "setting": "second compound 3.16 µM", "value": "> 10", "unit": "µM"}, {"measurement": "IC50", "setting": "second compound 10 µM", "value": "> 10", "unit": "µM"}, {"measurement": "viability, T/C", "setting": "[1]", "value": 97.4, "unit": "%"}, {"measurement": "viability, T/C", "setting": "[2]", "value": 98.2, "unit": "%"}, {"measurement": "viability, T/C", "setting": "[3]", "value": 94, "unit": "%"}, {"measurement": "viability, T/C", "setting": "[4]", "value": 101, "unit": "%"}, {"measurement": "viability, T/C", "setting": "[5]", "value": 89.8, "unit": "%"}, {"measurement": "viability, T/C", "setting": "[6]", "value": 65.8, "unit": "%"}, {"measurement": "viability, T/C", "setting": "[7]", "value": 100, "unit": "%"}, {"measurement": "viability, T/C", "setting": "[8]", "value": 101, "unit": "%"}, {"measurement": "viability, T/C", "setting": "[9]", "value": 105, "unit": "%"}, {"measurement": "viability, T/C", "setting": "[10]", "value": 92.6, "unit": "%"}, {"measurement": "viability, T/C", "setting": "[11]", "value": 89.7, "unit": "%"}, {"measurement": "viability, T/C", "setting": "[12]", "value": 66.4, "unit": "%"}, {"measurement": "viability, T/C", "setting": "[13]", "value": 101, "unit": "%"}, {"measurement": "viability, T/C", "setting": "[14]", "value": 91.2, "unit": "%"}, {"measurement": "viability, T/C", "setting": "[15]", "value": 93.5, "unit": "%"}, {"measurement": "viability, T/C", "setting": "[16]", "value": 94.8, "unit": "%"}, {"measurement": "viability, T/C", "setting": "[17]", "value": 90.2, "unit": "%"}, {"measurement": "viability, T/C", "setting": "[18]", "value": 67, "unit": "%"}, {"measurement": "viability, T/C", "setting": "[19]", "value": 95, "unit": "%"}, {"measurement": "viability, T/C", "setting": "[20]", "value": 99.3, "unit": "%"}, {"measurement": "viability, T/C", "setting": "[21]", "value": 91.7, "unit": "%"}, {"measurement": "viability, T/C", "setting": "[22]", "value": 86.6, "unit": "%"}, {"measurement": "viability, T/C", "setting": "[23]", "value": 88.8, "unit": "%"}, {"measurement": "viability, T/C", "setting": "[24]", "value": 66.8, "unit": "%"}, {"measurement": "viability, T/C", "setting": "[25]", "value": 94.7, "unit": "%"}, {"measurement": "viability, T/C", "setting": "[26]", "value": 96.7, "unit": "%"}, {"measurement": "viability, T/C", "setting": "[27]", "value": 89.7, "unit": "%"}, {"measurement": "viability, T/C", "setting": "[28]", "value": 90.8, "unit": "%"}, {"measurement": "viability, T/C", "setting": "[29]", "value": 87.2, "unit": "%"}, {"measurement": "viability, T/C", "setting": "[30]", "value": 64, "unit": "%"}, {"measurement": "viability, T/C", "setting": "[31]", "value": 99.7, "unit": "%"}, {"measurement": "viability, T/C", "setting": "[32]", "value": 97.4, "unit": "%"}, {"measurement": "viability, T/C", "setting": "[33]", "value": 103, "unit": "%"}, {"measurement": "viability, T/C", "setting": "[34]", "value": 89.4, "unit": "%"}, {"measurement": "viability, T/C", "setting": "[35]", "value": 86.1, "unit": "%"}, {"measurement": "viability, T/C", "setting": "[36]", "value": 63.9, "unit": "%"}]}
{"compound": "COc1cccc2c1C(=O)c1c(O)c3c(c(O)c1C2=O)CC(O)(C(=O)CO)CC3OC1CC(N)C(O)C(C)O1", "note": "(centres undefined) + Cc1cccc(N(C)C(=O)C2C(O)CCN2c2nc(C)cc(C(F)(F)F)c2C#N)c1", "values": [{"measurement": "IC50", "setting": "second compound 0.0316 µM", "value": "> 10", "unit": "µM"}, {"measurement": "IC50", "setting": "second compound 0.1 µM", "value": "> 10", "unit": "µM"}, {"measurement": "IC50", "setting": "second compound 0.316 µM", "value": "> 10", "unit": "µM"}, {"measurement": "IC50", "setting": "second compound 1 µM", "value": 9.22, "unit": "µM"}, {"measurement": "IC50", "setting": "second compound 3.16 µM", "value": 9.74, "unit": "µM"}, {"measurement": "IC50", "setting": "second compound 10 µM", "value": "> 10", "unit": "µM"}, {"measurement": "viability, T/C", "setting": "[1]", "value": 99, "unit": "%"}, {"measurement": "viability, T/C", "setting": "[2]", "value": 87.9, "unit": "%"}, {"measurement": "viability, T/C", "setting": "[3]", "value": 79.6, "unit": "%"}, {"measurement": "viability, T/C", "setting": "[4]", "value": 70.5, "unit": "%"}, {"measurement": "viability, T/C", "setting": "[5]", "value": 60.8, "unit": "%"}, {"measurement": "viability, T/C", "setting": "[6]", "value": 53.2, "unit": "%"}, {"measurement": "viability, T/C", "setting": "[7]", "value": 96.2, "unit": "%"}, {"measurement": "viability, T/C", "setting": "[8]", "value": 92.5, "unit": "%"}, {"measurement": "viability, T/C", "setting": "[9]", "value": 80.7, "unit": "%"}, {"measurement": "viability, T/C", "setting": "[10]", "value": 70.2, "unit": "%"}, {"measurement": "viability, T/C", "setting": "[11]", "value": 62.9, "unit": "%"}, {"measurement": "viability, T/C", "setting": "[12]", "value": 52.8, "unit": "%"}, {"measurement": "viability, T/C", "setting": "[13]", "value": 95.2, "unit": "%"}, {"measurement": "viability, T/C", "setting": "[14]", "value": 94.4, "unit": "%"}, {"measurement": "viability, T/C", "setting": "[15]", "value": 79.4, "unit": "%"}, {"measurement": "viability, T/C", "setting": "[16]", "value": 68.2, "unit": "%"}, {"measurement": "viability, T/C", "setting": "[17]", "value": 63, "unit": "%"}, {"measurement": "viability, T/C", "setting": "[18]", "value": 51.7, "unit": "%"}, {"measurement": "viability, T/C", "setting": "[19]", "value": 100, "unit": "%"}, {"measurement": "viability, T/C", "setting": "[20]", "value": 97.9, "unit": "%"}, {"measurement": "viability, T/C", "setting": "[21]", "value": 79.6, "unit": "%"}, {"measurement": "viability, T/C", "setting": "[22]", "value": 70.1, "unit": "%"}, {"measurement": "viability, T/C", "setting": "[23]", "value": 62.8, "unit": "%"}, {"measurement": "viability, T/C", "setting": "[24]", "value": 48.2, "unit": "%"}, {"measurement": "viability, T/C", "setting": "[25]", "value": 96.7, "unit": "%"}, {"measurement": "viability, T/C", "setting": "[26]", "value": 86.1, "unit": "%"}, {"measurement": "viability, T/C", "setting": "[27]", "value": 81.2, "unit": "%"}, {"measurement": "viability, T/C", "setting": "[28]", "value": 70, "unit": "%"}, {"measurement": "viability, T/C", "setting": "[29]", "value": 56.3, "unit": "%"}, {"measurement": "viability, T/C", "setting": "[30]", "value": 50.6, "unit": "%"}, {"measurement": "viability, T/C", "setting": "[31]", "value": 96.2, "unit": "%"}, {"measurement": "viability, T/C", "setting": "[32]", "value": 81.4, "unit": "%"}, {"measurement": "viability, T/C", "setting": "[33]", "value": 80.1, "unit": "%"}, {"measurement": "viability, T/C", "setting": "[34]", "value": 68.2, "unit": "%"}, {"measurement": "viability, T/C", "setting": "[35]", "value": 63.9, "unit": "%"}, {"measurement": "viability, T/C", "setting": "[36]", "value": 48.8, "unit": "%"}]}
